Entries after “also recorded” stand apart in the source; their conditions may differ.
Legend:
[1] = ESI-MS analysis of complex formation with zinc salts; type: binding; settings: ZnSO4 or Zn(NO3)2, ESI-MS
Method: Eight equivalents of M(NO3)2·xH2O or MSO4·xH2O (M=Cu, Zn) were reacted with 1 eq. of DPM-1001 (1 mM in H2O). The reaction solutions were stirred at RT, 40° C. and 80° C. for 2 h. Mass spectra were recorded on a Bruker Esquire 6000 HCT quadrupole ion trap instrument (Bruker Daltonik GmbH, Leipzig, Germany), equipped with an electrospray ionization (ESI) source. Generation of the molecular formula of the DPM-1001/Cu(II) species and the comparison between the theoretical (simulated) and the measured isotopic patterns was performed using the DataAnalysis 4.0 software (Bruker).

[2] = tested on: insulin receptor β subunit, AKT; experiment: Insulin signaling in liver of treated mice; type: in vivo
Description: The antibodies used in the study were purchased from: Upstate Biotechnology (pTyr, catalog 05-321, clone 4G10); Invitrogen (pY1162/1163-IR-β, catalog 700393, clone 97H9L7); Santa Cruz Biotechnology Inc. (IR-β, catalog sc-711, clone C711); Cell Signaling
(§1) Technology (JAK2, catalog 3230, clone D2E12; p-T308 AKT (catalog 13038, clone D25E6); AKT (catalog 4691, clone C67E7) and Sigma-Aldrich (actin, catalog A2228, clone AC-74).
(§2) All protocols were approved by the Institutional Animal Use and Care Committee of Cold Spring Harbor laboratory. 10 week-old male mice fed chow diet or high-fat diet (D12492) were acclimatized for 10 days under standard conditions before experiments. Mice were injected intraperitoneally (i.p.) once daily with vehicle, 5 mg/kg of DPM-1001 intraperitoneally or orally for 50 days. Mice were euthanized after 6 h of fasting, and serum samples were collected to measure the metabolic parameters and tissue samples were collected for studying changes in signaling.

JAK2 = experiment: Leptin signaling in hypothalamus of treated mice; type: in vivo; settings: leptin-induced
Method: as §1, §2

[3] = tested on: ATP7B-knockdown HepG2 cells; experiment: Copper-induced toxicity, MTT cell survival; type: cell-based; settings: DPM-1001 2 μM; ATP7B-knockdown HepG2
Method: HepG2 cells purchased from ATCC were cultured in RPMI media containing 10% FBS, 5% CO2 at 37 C. Control (AG09319) and Wilson's disease patient-derived fibroblasts (GM00032, GM00033, GM05257, GM12158, GM05798 and GM11778) were obtained from Coriell Biorepository and cultured in DMEM, 10% FBS, 5% CO2 at 37° C.
For cell survival assays, 10,000 cells were seeded in a 96 well plate and cultured until fully confluent (90%). To these cells, ATP7B siRNAs or scrambled siRNA (negative control) purchased from Qiagen and Santa Cruz Biotechnology were transfected. Lipofectamine RNAiMAX reagent (Thermofischer) and siRNAs were diluted into a final volume of 100 μl in Opti-MEM (Gibco). The mixture was incubated at room temperature for 30 min, following which 800 μl of Opti-MEM was added to the mixture. The above transfection solution was overlaid onto cells at a final concentration of 5 nM siRNA. Transfection of HepG2 cells with scrambled siRNA served as negative control. Twelve hours after the transfection, complete media was added to each well. Following which, knockdown efficiency was checked (24 hours later) and cells were exposed to varying concentration of copper (0-1 mM) for 12 h and cell viability was determined using the MTT assay as previously described (37). […]

TX mice = experiment: Liver histology; type: in vivo, mouse
Description: Liver tissues from wild-type and TX mice from untreated and DPM-1001-treated mice were sectioned and stained with H&E or rhodanine. Whole-slide, digitized images of H&E-stained tissue were captured using the Aperio ScanScope XT automated scanning system (Vista, CA). Image J software was used to quantitate rhodanine staining.

non-TNBC cell lines = experiment: MTT cell survival, non-TNBC cell lines; type: cell-based
Method: (§3) The MTT assay was used to evaluate cell survival in the absence and presence of different compounds. The thiazolyl blue tetrazolium bromide (MTT) was dissolved in phosphate buffered saline (PBS) at a concentration of 5 mg/ml, filtered, and stored at 4° C. About 10,000 cells were seeded into a 96-well plate and cultured in growth medium containing serum. After 24 hours, cells were treated with the indicated concentrations of DPM-1001 or DPM-1003 (0-100 uM) for 2 hrs. Following which 20 μl MTT was added into each well. An ELISA plate reader (Biotek, Winooski, Vermont, USA) was used to measure the optical density at 490 nm.

TNBC cells [4] = experiment: Annexin V and propidium iodide staining; type: cell-based
Method: Cells (1×10^5) were plated in six-well plates in growth medium. The cells were untreated or treated with DPM-1001 (2 μM). Following which, cells were washed with cold PBS twice and resuspended in 0.1 M Hepes/NaOH (pH 7.4), 1.4 M NaCl, 25 mM CaCl2). To the cell suspension 5 μl of fluorescein isothiocynate (FITC)-conjugated annexin V (0.1 mg/ml) and propidium iodide (1 mg/ml) were added and the samples were incubated in dark for 30 minutes at room temperature. The samples were analyzed by flow cytometry (Becton Dickinson LSRII Cell Analyzer).

AGS cells = experiment: Cell survival; type: cell-based
Method: as §3

MDA-MB-468 cells = experiment: Cell survival; type: cell-based
Method: as §3

N87 = experiment: Cell survival; type: cell-based
Method: as §3

NIH 3T3 cells = experiment: Cell survival; type: cell-based
Method: as §3

SNU5 cells = experiment: Cell survival; type: cell-based
Method: as §3

TNBC cells [5] = experiment: Immunoblot of copper-induced signaling; type: cell-based; settings: co-administration
Description: Equal quantities of lysates were isolated from indicated cell lines and then resolved by SDS-PAGE and immunoblotted with one of the following primary antibodies: mouse anti-MEK1/2, rabbit anti-p-PAK1, rabbit anti-PAK1, rabbit anti-ERK1/2, rabbit anti-phospho(Ser 217/221)-MEK1/2, rabbit anti-phospho(Thr 202/Tyr 204)-ERK1/2, rabbit anti-phospho (Ser 338)-c-RAF, rabbit anti-RAF, rabbit anti-phospho (Ser 112)-BAD and rabbit anti-BAD (Cell Signaling Technology), mouse anti-β-actin (Sigma), followed by detection with one of the following horseradish peroxidase-conjugated secondary antibodies: goat anti-rabbit IgG, goat anti-mouse IgG (Invitrogen), mouse anti-rabbit light-chain-specific IgG (Jackson ImmunoResearch Laboratories) using enhanced chemiluminescence (ECL; GE Healthcare) or SuperSignal West Femto Chemiluminescent substrate (Pierce) detection reagents.

COC(=O)CCC(C)C1CCC2C3C(O)CC4CC(NCCCCNCc5ccccn5)CCC4(C)C3CCC12C (stereo not shown) [DPM-1001]
complexation with Zn(II) [1]: no complexation
AKT phosphorylation [2]: phosphorylation of AKT; also recorded: enhanced AKT phosphorylation
tyrosine phosphorylation of insulin receptor β subunit ([2]; insulin-stimulated, orally or intraperitoneally): increased insulin-stimulated insulin receptor phosphorylation; also recorded: marked increase in β-subunit phosphorylation
phosphorylation of JAK2 (JAK2): increased leptin-induced JAK2 phosphorylation; also recorded: enhanced phosphorylation of JAK2
protection from copper-induced cell death [3]: able to rescue cells from copper-induced cell death
liver morphology (TX mice; TX mice): prevents the enlarged hepatocytes with irregular shape and arrangement large cytoplasmic lipid droplets in liver; also recorded: appeared similar to those from wild-type mice with normal hepatocyte size, shape and arrangement
liver morphology (TX mice; wild-type mice): no obvious abnormalities were detected
survival of non-TNBC cell lines, DPM-1001 versus DPM-1003 (non-TNBC cell lines): did not differ from each other
mechanism of reduced cell survival (TNBC cells [4]): due to promoting death of these cells
survival of AGS cells (AGS cells): inhibited survival; also recorded: inhibitory effect
survival of MDA-MB-468 cells (MDA-MB-468 cells): inhibitory effect
survival of N87 cells (N87): inhibited survival; also recorded: inhibitory effect
survival of NIH 3T3 cells (NIH 3T3 cells): no effect on survival
survival of SNU5 cells (SNU5 cells): inhibited survival; also recorded: inhibitory effect
copper-induced increase of pS338-RAF1 and pS112-BAD (TNBC cells [5]; 5-10 μM copper in culture media): reduced or blocked
copper-induced increase of phospho-PAK1 (TNBC cells [5]; copper added to culture media): blocked

From patent US12178825B2, “Method and compositions for forming a copper-containing complex and uses thereof” (COLD SPRING HARBOR LABORATORY, priority 2017, dated 2024)
